Values quoted from earlier work in article PMC9455983 (International Journal of Molecular Sciences, 2022).

Experiments:
[1] = molecular target: κ opioid receptor; design: method as in PMID 25996309; details: cited from earlier work
[2] = molecular target: δ opioid receptor; design: method as in PMID 25996309; details: cited from earlier work

## CC(C)C[C@H]1CN2C(=CC3=NC[C@H](C(C)C)N3C[C@@H]2Cc2ccc(O)cc2)N1CCc1ccccc1 [Diimidazodiazepine 14]
[1]
  Ki: 23 ± 12 nM
[2]
  Ki: 32 ± 6 nM
